Tested on: cortisol concentration in the plasma
Experiment: Evaluation of cortisol secretion promoting effect (plasma cortisol, 24-week oral ingestion)
Assay type: in vivo, human
Settings: for cortisol concentration in the plasma, 0 weeks (before ingestion) / cortisol concentration in the plasma, 24 weeks (after ingestion) / cortisol concentration in the plasma, Change rate (24 weeks - 0 weeks): High Dose Group (200 mg/daily, oral), mean±SD; for cortisol concentration in the plasma, 0 weeks (before ingestion): baseline
Experimental: In order to confirm a change in the cortisol quantity before and after ingestion of the nicotinamide mononucleotide, a test was conducted on healthy males and females aged 50 to 70 years.
As a sample of Working Example 11, a capsule formulation containing the nicotinamide mononucleotide and starch (200 mg of the nicotinamide mononucleotide in 4 capsules) (manufactured by SHINKOWA PHARMACEUTICAL Co., Ltd.) was used.
Each group consisting of five healthy males and females aged 50 to 70 years in an unbiased age group ingested the above high dose capsule formulation once a day by 4 capsules for 24 weeks (total 10 subjects, 200 mg/daily ingestion). In order to conduct appropriate evaluations, those who had been regularly using medical products for chronic diseases, those who had been consuming healthy foods that may affect clinical research, and those who were currently participating in other clinical researches or clinical trials or had participated in other clinical researches or clinical trials within the last three months were excluded from the subject for the evaluation. The capsule formulations were ingested at 10 am (between meals and fasting state) together with water or lukewarm water (oral administration).
Measurement of the cortisol quantity in the plasma was conducted by requesting the measurement to an external public organization according to a usual method. FIGS. 22a to 22c indicate transitions of the cortisol concentration […] in the plasma for 24 weeks. FIG. 22a represents the transitions of the whole subjects; FIG. 22b represents the transitions of the male subjects; FIG. 22c represents the transitions of the female subjects. Further, FIGS. 23a to 23c indicate change rates (%) of the blood cortisol concentration up to 24 weeks when the nicotinamide mononucleotide was orally administered to the subjects for 24 weeks. FIG. 23a represents the change rates of the whole subjects; FIG. 23b represents the change rates of the male subjects; FIG. 23c represents the change rates of the female subjects. Further, Table 10 indicates the numerical values of the cortisol concentration (μg/dl) in the plasma before the ingestion of the nicotinamide mononucleotide (0 weeks) and after the ingestion of the nicotinamide mononucleotide (24 weeks). Note that the numerical values represent mean values±standard deviation.

SMILES: NC(=O)c1ccc[n+]([C@@H]2O[C@H](COP(=O)([O-])O)[C@@H](O)[C@H]2O)c1 [nicotinamide mononucleotide]
- cortisol concentration in the plasma, 0 weeks (before ingestion) (Female): 6.82 ± 1.20 µg/dL
- cortisol concentration in the plasma, 24 weeks (after ingestion) (Female): 10.56 ± 5.92 µg/dL
- cortisol concentration in the plasma, Change rate (24 weeks - 0 weeks) (Female): 3.74 ± 6.16 µg/dL
- cortisol concentration in the plasma, 0 weeks (before ingestion) (Male): 7.97 ± 2.50 µg/dL
- cortisol concentration in the plasma, 24 weeks (after ingestion) (Male): 10.30 ± 4.47 µg/dL
- cortisol concentration in the plasma, Change rate (24 weeks - 0 weeks) (Male): 2.33 ± 3.38 µg/dL
- cortisol concentration in the plasma, 0 weeks (before ingestion) (Whole Subjects): 7.40 ± 1.94 µg/dL
- cortisol concentration in the plasma, 24 weeks (after ingestion) (Whole Subjects): 10.43 ± 4.95 µg/dL
- cortisol concentration in the plasma, Change rate (24 weeks - 0 weeks) (Whole Subjects): 3.04 ± 4.74 µg/dL
- cortisol concentrations in the plasma, effect of ingestion (in words) (oral, 200 mg/daily, 24 weeks, FIGS. 22a-22c, 23a-23c): increased

From US20220031596A1, “ANTI-AGING AGENT AND ANTI-AGING METHOD” (priority 2018, published 2022)
